70 molecules from ChEMBL document CHEMBL3507680, “University of Dundee, Gates Library screen for HepG2 cell viability” can be followed below.

This series in a line: Human HepG2 cell viability assay in 384 well format. In kind it is toxicity, cell-based. Also on record: dose 125 nL, time 70.5 hour; cytotoxicity at 70.5 h: concentration not given beside the values. The settings on record: HepG2 cells, read-out: Inhibition.
Take `CN(C)C(=O)N1C[C@H]2CN(Cc3cccc(F)c3)C(=O)[C@H]2C1`: the cytotoxicity at 70.5 h was -9.2%.

In the case of `Cc1cnn(C2CCCN(C(=O)c3ccc(-n4ccnc4)cc3)C2)c1` (stereo not given), the cytotoxicity at 70.5 h was -17.4%.

As to `c1ccc(-c2ncc3c(n2)C2(CCN(CC4CC4)C2)COC3)cc1` (stereo not given), the cytotoxicity at 70.5 h worked out at 15.2%.

On to `c1ccc2c(c1)CCN(c1nc(N3CCOCC3)c3nn[nH]c3n1)C2`, for which the cytotoxicity at 70.5 h was -0.0594%.

Take `Cc1ccc(N2CCN(C(=O)[C@@H]3CCC(=O)N3)CC2=O)cc1`: the cytotoxicity at 70.5 h was -7.74%.

As for `COC1COC2(CCN(Cc3ccccc3Cl)CC2)C1` (stereo not given), the cytotoxicity at 70.5 h was -14.5%.

Consider `CC(=O)N[C@@H]1CN(C2CCN(c3cccc(C)c3C)CC2)C[C@H]1C(C)C`, for which the cytotoxicity at 70.5 h was -5.59%.

Take `NC(=O)c1cn[nH]c1C1CCCN1C(=O)COc1ccccc1` (stereo not given): the cytotoxicity at 70.5 h is -3.18%.

`Cc1nc(CN2CCCC(C)(CO)C2)no1` (stereo not given): the cytotoxicity at 70.5 h was -4.42%.

Take `CCC(CC)c1cc(C(=O)N2CCN(C(C)C(N)=O)CC2)on1` (stereo not given): the cytotoxicity at 70.5 h was -7.02%.

With `NC(=O)C(NCc1nn(-c2ccccc2)c2c1CCC2)c1ccccc1` (stereo not given), the cytotoxicity at 70.5 h was -10.6%.

Consider `CNS(=O)(=O)c1ccc(C(=O)Nc2ccc3c(c2)C(=O)NC3)cc1`, for which the cytotoxicity at 70.5 h came to 1.61%.

Turning to `CC(C)(C)C(=O)N1CCN(C(=O)Nc2cnn(CC(F)F)c2)CC1`, the cytotoxicity at 70.5 h is -7.22%.

With `Cc1nn(C)c2ncc(CN3CCCCCC3)cc12`, the cytotoxicity at 70.5 h was -5.07%.

As to `O=C1NCCN1C1CCN(Cc2nc(-c3ccc(F)cc3)no2)CC1`, the cytotoxicity at 70.5 h was 25%.

For `O=C(NCC(O)c1ccoc1)Nc1cccs1` (stereo not given), the cytotoxicity at 70.5 h is -6.41%.

For the molecule `COCC(=O)N1C[C@H](N(C)Cc2cncnc2)[C@H]2OCCC[C@H]21`, the cytotoxicity at 70.5 h is -8.78%.

Turning to `Fc1ccc(OCCCN2CCCC(Cn3cncn3)C2)cc1` (stereo not given), the cytotoxicity at 70.5 h is -3.77%.

Turning to `Cn1cnc(S(=O)(=O)NCC2CCN(C(=O)Oc3ccccc3)CC2)c1`, the cytotoxicity at 70.5 h came to 0.307%.

Turning to `CCS(=O)(=O)N1C[C@H]2CN(c3cnn(C)c3)C(=O)[C@H]2C1`, the cytotoxicity at 70.5 h was -5.61%.

As to `Cc1n[nH]c(C)c1-c1cc(-c2ccc[nH]2)nc(N)c1C#N`, the cytotoxicity at 70.5 h was -10.2%.

For `CC[C@@]1(O)CCN(CCCOc2ccc(C(N)=O)cc2)C[C@H]1O`, the cytotoxicity at 70.5 h is -4.97%.

`Cc1cc(CN(C)C(=O)NC2CCN(C3CC3)CC2)no1`: the cytotoxicity at 70.5 h is -3%.

`c1cnc(N2CCO[C@H]3CN(CC4CCOC4)C[C@H]32)cn1` (stereo not given in full): the cytotoxicity at 70.5 h is -2.13%.

Take `COc1cc2c(nn1)CCN(Cc1ncc(C(C)(C)C)o1)C2`: the cytotoxicity at 70.5 h was -5.34%.

Turning to `c1coc(-c2nnc([C@H]3CCN(Cc4ccc5c(c4)OCO5)C3)o2)c1`, the cytotoxicity at 70.5 h is -6.68%.

For `Cn1cnc2c1C(COCc1cccnc1)N(Cc1ccccn1)CC2` (stereo not given), the cytotoxicity at 70.5 h was -3.62%.

As to `COc1cccc(NC(=O)CN2CCN(S(C)(=O)=O)CC2)c1`, the cytotoxicity at 70.5 h is -8.85%.

`Cc1cc(N2CCC(O)(CN(C)C(=O)CCN)C2)c2cnccc2n1` (stereo not given): the cytotoxicity at 70.5 h is -4.6%.

On to `CCN1CCN(C(=O)c2nc(C)n(-c3ccccc3Cl)n2)CC1`, for which the cytotoxicity at 70.5 h is 7.74%.

Regarding `COCCn1cc(NC(=O)NC(C)CCc2ccccc2)ccc1=O` (stereo not given), the cytotoxicity at 70.5 h was -7.43%.

Regarding `CSCCC(=O)N1CCCC(n2ccnc2)C1` (stereo not given), the cytotoxicity at 70.5 h is -6.36%.

Regarding `O=C(C1CCOC1)N1C[C@H]2CN(Cc3ccncc3)C(=O)[C@H]2C1` (stereo not given in full), the cytotoxicity at 70.5 h is -9.99%.

For `Cc1cnn(CC2CCCCN2Cc2nc(-c3ccoc3)no2)c1` (stereo not given), the cytotoxicity at 70.5 h is -6.01%.

Take `Cc1cccc(OCCSCCn2nc3ccccn3c2=O)c1`: the cytotoxicity at 70.5 h is -11%.

Regarding `CS(=O)(=O)N1CCN(Cc2c(O)ccc3oc4c(c23)CCCC4)CC1`, the cytotoxicity at 70.5 h is -10.3%.

Turning to `Cc1cnn(CC2CCCN2Cc2nnc(C)o2)c1` (stereo not given), the cytotoxicity at 70.5 h was -2.26%.

In the case of `O=C(CCC1CCCN(C(=O)CCN2CCCCO2)C1)N1CCCC1` (stereo not given), the cytotoxicity at 70.5 h is -5.73%.

On to `Nc1cc(N2CCCC2c2cnccn2)ncn1` (stereo not given), for which the cytotoxicity at 70.5 h is -7.75%.

As for `CC1CN(CC(=O)Nc2nccs2)CCN1Cc1nccn1C` (stereo not given), the cytotoxicity at 70.5 h was -6.31%.

As for `CC(C)C(=O)Nc1ccc(Oc2ccc3c(c2)OCO3)nc1`, the cytotoxicity at 70.5 h was -10.1%.

Consider `Cc1nn(C(C)C)c(C)c1NC(=O)c1cccnc1`, for which the cytotoxicity at 70.5 h came out at 1.88%.

Take `Cc1ccc(-n2nnc(C(=O)Nc3cc(C)nn3C)c2C2CC2)cc1`: the cytotoxicity at 70.5 h amounted to 0.219%.

For the molecule `CCC1CN(C)c2ccccc2CN1C(=O)Nc1ccc(C)cc1` (stereo not given), the cytotoxicity at 70.5 h is -2.3%.

Regarding `Cc1cc(NC(=O)c2ccc(F)cc2Cl)n(C)n1`, the cytotoxicity at 70.5 h is 6.57%.

Take `Cc1cc(C)n(CC2CCCCN2CC(=O)N(C)Cc2ccco2)n1` (stereo not given): the cytotoxicity at 70.5 h is 6.64%.

Take `Cc1noc(C)c1CCC(=O)N1CCn2cccc2C1C` (stereo not given): the cytotoxicity at 70.5 h was -0.947%.

On to `CCN(CC)C(=O)CNC(=O)c1c[nH]c2ccc(OC)cc12`, for which the cytotoxicity at 70.5 h turned out to be 3.81%.

On to `COc1ccc2cc(CNCc3c(C)nn(C)c3N(C)C)ccc2c1`, for which the cytotoxicity at 70.5 h was determined as 23%.

As for `Cn1cccc1C(=O)N[C@@H]1CN(S(C)(=O)=O)[C@@H]2COC[C@@H]21`, the cytotoxicity at 70.5 h is -8.37%.

Regarding `CCOc1ccc(Cl)c(C(=O)N2CCCN(CC(N)=O)CC2)n1`, the cytotoxicity at 70.5 h was -12%.

With `NCCC1CN(c2nc(-c3ccccc3)nc3c2CCNC3)CCO1` (stereo not given), the cytotoxicity at 70.5 h is 2.96%.

For the molecule `O=C(c1ncccn1)N1CCC[C@]2(C[C@H](OCC3CC3)CO2)C1`, the cytotoxicity at 70.5 h was -16.3%.

Regarding `CCNc1ncc(C(=O)NC2CCSC2)cn1` (stereo not given), the cytotoxicity at 70.5 h was 8.53%.

In the case of `CCn1ncc2c1C(COCC1CC1)CN(c1ccncn1)C2` (stereo not given), the cytotoxicity at 70.5 h was -8.04%.

For the molecule `Cc1cc(C(=O)N(C)C)nc(C2(C)CCCN2c2ccnc(C)n2)n1` (stereo not given), the cytotoxicity at 70.5 h is -6.87%.

In the case of `COC(=O)c1ccc2ccn(CC3COCCO3)c(=O)c2c1` (stereo not given), the cytotoxicity at 70.5 h was -8.18%.

Regarding `Cc1nnc(CN2CCN(C)C3(CCC(=O)N(CCO)CC3)C2)s1` (stereo not given), the cytotoxicity at 70.5 h worked out at 3.3%.

In the case of `COc1ccc(Br)cc1CCC(=O)N1CCSCC1`, the cytotoxicity at 70.5 h was 8.26%.

With `COc1cccc2c1ccn2CCNC(=O)CCNc1ncccn1`, the cytotoxicity at 70.5 h is -18%.

In the case of `Cc1cc(N2CCC(n3cc(CN4CCSCC4)nn3)CC2)ccn1`, the cytotoxicity at 70.5 h came to 1.06%.

Turning to `CCc1ccc(C2CCCN2C(=O)CNC(=O)CCC(C)C)o1` (stereo not given), the cytotoxicity at 70.5 h is -1.81%.

As to `CN1CCN(C(=O)c2cc(C#N)cs2)c2ccccc2C1`, the cytotoxicity at 70.5 h was -0.662%.

For the molecule `O=C(c1ccco1)N1Cc2cnn(CC3CC3)c2C(COCC2CC2)C1` (stereo not given), the cytotoxicity at 70.5 h amounted to 15.4%.

As for `NCc1cccc(-c2cccnc2C(=O)NCCN2CCOCC2)c1`, the cytotoxicity at 70.5 h is -9.72%.

As to `CN(C)C(=O)c1nc(CN2CC(Cc3ccccc3)CC2=O)no1` (stereo not given), the cytotoxicity at 70.5 h was -2.6%.

On to `CC(C)CCn1[nH]c(CNc2ccc(F)cc2)nc1=O`, for which the cytotoxicity at 70.5 h is -10.3%.

In the case of `Cc1cnn(C2CCCN(C(=O)c3cc(Cl)c4c(c3)OCO4)C2)c1` (stereo not given), the cytotoxicity at 70.5 h is 7.73%.

Consider `Cn1cnnc1S(=O)(=O)C1CCN(S(=O)(=O)c2ccc(F)c(Cl)c2)CC1`, for which the cytotoxicity at 70.5 h was -5.73%.

Take `CC1Cc2ccccc2N1Cc1occc1C(=O)NCC(=O)N(C)C` (stereo not given): the cytotoxicity at 70.5 h is -1.83%.
